# From article PMC11919252 (eLife, 2025)
# Entries after “also recorded” stand apart in the source; their conditions may differ. Where a name gives a salt, the structure may show the parent alone.
# Tests used:
# [1] = system: WT and Tac1::Calca DKO mice; experiment: AITC-evoked licking; type: in vivo, mouse; settings: 1% AITC in saline, 20 µl intraplantar; 5 min; WT n=12, DKO n=12
# Procedure: (§1) 0.3% capsaicin in 80% saline / 10% Tween-80 /10% ethanol or 1% AITC in saline was injected into the plantar surface of the hind paw. The injected volume for both was 20 µl. Mice were video-taped for 5 min. A blinded observer scored the amount of time in seconds the mouse spent licking the injected paw in a 5-min time period.
# [2] = system: hindpaw of WT and DKO mice; experiment: Hindpaw swelling (edema), plethysmometer; type: in vivo, mouse; settings: for Swelling of the hindpaw, DKO versus WT: observation after injection of CFA, PGE2, AITC or capsaicin
# Procedure: (§2) Mice were anesthetized using isoflurane. 200 μl of Evans Blue dye was injected into the mouse’s tail vein. 15 mins later, one hindpaw was injected with an algogen. After a further 30 min, the volume of each paw was measured by displacement using a plethysmometer (Ugo Basile). Both paws were then cut at the ankle and placed in tubes in the oven at 55 °C for 24 hr to dry. 1 ml of formamide was then added to each paw and incubated for 4-6 days at 55 °C to extract the dye from the paw tissue. 50 μl samples of dye-infused formamide from each paw were then dispensed to a 96-well plate in duplicate, along with a range of Evans blue dilutions in formamide to generate a standard curve. The optical density of each sample was then measured using a plate-reader, and the concentration of Evans Blue per paw sample interpolated from the standard curve to generate an index of extravasation in that paw.
# [3] = system: hindpaw of WT and DKO mice; experiment: Plasma extravasation, Evans blue assay; type: in vivo, mouse; settings: for Paw swelling and plasma extravasation (images): injected (left) compared to uninjected (right) paw, WT and DKO mice
# Procedure: as §2
# [4] = system: CGRP receptor (Calcrl and Ramp1) in CGRP-sniffer HEK293 cells co-cultured with DRG neurons; experiment: Co-culture of DRG neurons and CGRP-sniffer cells (CGRP release); type: cell-based, mouse
# [5] = system: WT and Tac1::Calca DKO mice; experiment: Conditioned taste aversion; type: in vivo, mouse; settings: LiCl 200 mg/kg; saccharin 15 mM; WT n=7, DKO n=6
# Procedure: Mice were single-housed and habituated for 3 days to drink from two glass bottles with stainless-steel ball-bearing spouts. Mice then received 3 days of training, where they were water-deprived for 22 hr followed by 30 min exposure to a single water-containing bottle, then 90 min exposure to both bottles. On the conditioning day, after 22 hr of water deprivation, mice were exposed to a single bottle containing saccharin water (15 mM) for 45 min. Mice were then injected with lithium chloride (200 mg/kg) or PBS, and then given ordinary water for 75 min. The animals were then water deprived for a further 22 hr. On the test day, mice were simultaneously exposed to a bottle containing water and a bottle containing saccharin for 45 min. The volume of each solution consumed was measured by weighing the bottles before and after. To calculate the saccharin preference index of each animal, the volume of saccharin consumed was divided by the total of fluid consumed, with a value less than 0.5 indicating the development of an aversion to saccharin.
# [6] = system: WT and Tac1::Calca DKO mice; experiment: Inflammatory mechanical hypersensitivity (von Frey); type: in vivo, mouse; settings: PGE2 20 μl, 500 nM intraplantar; up to 120 min; WT n=6, DKO n=6
# Procedure: Punctate mechanical sensitivity was measured using the up-down method of Chaplan to obtain a 50% withdrawal threshold ([Chaplan et al., 1994]). Mice were habituated on a mesh wire stand for 1 hr. A 0.16 g Von Frey hair was applied to the plantar region of the paw for 2 s. A response was recorded when the mouse swiftly lifted its paw in response to the stimulus. […] To calculate the 50% withdrawal threshold, five responses surrounding the 50% threshold were obtained after the first change in response. The pattern of responses was used to calculate the 50% threshold = (10[χ+κδ]/10,000), where χ is the log of the final von Frey filament used, κ=tabular value for the pattern of responses and δ the mean difference between filaments used in log units. The log of the 50% threshold was used to calculate summary and test statistics.
# (§3) CFA and PGE2 was purchased from Sigma. 20 μl of CFA was injected into the heel of the hind paw. PGE2 (20 μl, 500 nM) was injected into the plantar surface of the hindpaw, and behavior was assessed over the same time-frame that produces in vivo sensitization of nociceptor responses (up to 120 min). Inflammation-induced hypersensitivity was measured using the Hargreaves and the von Frey, as described above.
# [7] = system: WT and Tac1::Calca DKO mice; experiment: Inflammatory heat hypersensitivity (Hargreaves); type: in vivo, mouse; settings: PGE2 20 μl, 500 nM intraplantar; up to 120 min; WT n=10, DKO n=10
# Procedure: The radiant heat stimulus was aimed for the centre of the plantar region of the mouse’s hind paw. The active intensity of the low stimulus was 40 intensity units, and of the high stimulus 55. The response latency was recorded for five trials with 10 min breaks in between each trial.
# as §3
# [8] = system: WT and Tac1::Calca DKO mice; settings: 0.6% acetic acid, intraperitoneal, 10 μl/g; 15 min from 5 min after injection; WT n=9, DKO n=7
# Procedure: Mice were habituated on a plexiglass stand for 1 hr. 0.6% of acetic acid was injected intraperitoneally at a dose of 10 μl/g weight of the animal. Mice were videotaped for 20 min. The number of writhes was quantified post-hoc by a blinded observer during a 15-min interval between 5 and 20 min after injection.
# [9] = system: dorsal horn of WT and DKO mice; experiment: Capsaicin-evoked dorsal horn Fos staining; type: in vivo, mouse; settings: capsaicin 0.3% hindpaw; WT n=5, DKO n=4
# Procedure: […]. After 1 week, mice were habituated then the stimulation was performed. For capsaicin-evoked dorsal horn Fos, capsaicin (0.3%) was injected into the right hindpaw of mice in chambers on a plexiglass stand. For Fos elicited by dynamic allodynia stimulation, mice that received a spared nerve injury procedure 3 weeks prior were stimulated with a paint brush while housed on a wire mesh stand (3x10 min stimulation period, with 1-min rest every 10 min). Note that for SNI experiments, the CTB was injected into the contralateral paw, because severing two branches of the sciatic nerve would have prevented efficient CTB transit in the ipsilateral paw. The mice were perfused as above and spinal cords were harvested 75–120 min after stimulation. The sections were incubated in a blocking buffer (5% goat serum; 0.1% Triton X-100; PBS) for 3 hr at room temperature on a shaker. The sections were incubated in 1:1000 rabbit anti Fos primary antibody (Cell Signaling Technology, Phospho-c-Fos (Ser32) (D82C12) XP Rabbit mAb, #5348) at room temperature overnight. […] This ensured Fos activity was measured only in those sections strongly innervated by the hindpaw. The number of Fos-positive nuclei in the dorsal horn were quantified in ImageJ/FIJI software (National Institute of Health) by a blinded observer using a semi-automated procedure. […]
# [10] = system: WT and Tac1::Calca DKO mice; experiment: Capsaicin-evoked licking; type: in vivo, mouse; settings: 0.3% capsaicin, 20 µl intraplantar, 5 min
# Procedure: as §1
# [11] = system: Substance P receptor (NKR1) in Substance P-sniffer HEK293 cells co-cultured with DRG neurons; experiment: Co-culture of DRG neurons and Substance P-sniffer cells (Substance P release); type: cell-based, mouse; settings: capsaicin 10 μM
# [12] = system: WT and Tac1::Calca DKO mice; experiment: Chloroquine-induced itch; type: in vivo, mouse; settings: chloroquine 20 μl of 25 μM intradermal, nape of neck; 15 min; WT n=8, DKO n=11
# Procedure: Hair from the nape of the mouse’s neck was removed 2–3 days prior to behavioral experiments using VEET hair removal cream and the area thoroughly washed and moisturizing cream applied. Mice were habituated to transparent acrylic chambers (10cm x 10cm x 13 cm) 30 min prior to injection. Post habituation, a blinded investigator injected 20 μl of 25 μM Chloroquine diphosphate salt (Sigma-Aldrich: C6628) solution in 0.9% saline intradermally into the nape of the neck using a 31 G insulin syringe. Videos were quantified by a separate blinded investigator with a scratching bout counted each time the mouse attended to the injected area with the hind paw after the paw was removed from the floor or mouth.
smiles,measurement,setting,value
"C=CCN=C=S [AITC, allyl isothiocyanate]",Licking behavior after AITC,[1],evoked similar licking behavior to capsaicin that was unaffected by peptide deletion
same,"Swelling of the hindpaw, DKO versus WT",[2],provoked swelling of the hindpaw of DKO mice to a similar extent as WT mice
same,Paw swelling and plasma extravasation (images),[3],both WT and DKO mice show paw swelling and plasma extravasation
CC(C)C[C@H](NC(=O)CNC(=O)[C@H](C)NC(=O)[C@H](CC(C)C)NC(=O)[C@H](CCCNC(=N)N)NC(=O)[C@H](Cc1c[nH]cn1)NC(=O)[C@@H](NC(=O)[C@@H](NC(=O)[C@@H]1CSSC[C@H](NC(=O)[C@@H](N)CO)C(=O)N[C@@H](CC(N)=O)C(=O)N[C@@H]([C@@H](C)O)C(=O)N[C@@H](C)C(=O)N[C@@H]([C@@H](C)O)C(=O)N1)C(C)C)[C@@H](C)O)C(=O)N[C@@H](CC(C)C)C(=O)N[C@@H](CO)C(=O)N[C@@H](CCCNC(=N)N)C(=O)N[C@@H](CO)C(=O)NCC(=O)NCC(=O)N[C@H](C(=O)N[C@H](C(=O)N[C@@H](CCCCN)C(=O)N[C@@H](CC(=O)O)C(=O)N[C@@H](CC(N)=O)C(=O)N[C@@H](Cc1ccccc1)C(=O)N[C@H](C(=O)N1CCC[C@H]1C(=O)N[C@H](C(=O)N[C@@H](CC(N)=O)C(=O)N[C@H](C(=O)NCC(=O)N[C@@H](CO)C(=O)N[C@@H](CCC(=O)O)C(=O)N[C@@H](C)C(=O)N[C@@H](Cc1ccccc1)C(N)=O)C(C)C)[C@@H](C)O)C(C)C)C(C)C)C(C)C [CGRPα],CGRP-sniffer activation by exogenous CGRPα,"[4]; CGRPα saturating concentration 100–1000 nM, co-culture with WT and DKO DRG, n=18 wells per genotype",activates CGRP-sniffers in both conditions
"[Cl-].[Li+] [LiCl, lithium chloride]",Conditioned taste aversion to saccharin,[5],pronounced aversion to the usually-preferred saccharin; also recorded: strong and indistinguishable conditioned taste aversion in both WT and DKO mice
"CCCCC[C@H](O)/C=C/[C@H]1[C@H](O)CC(=O)[C@@H]1C/C=C\CCCC(=O)O [PGE2, Prostaglandin E2]","Mechanical hypersensitivity, von Frey",[6],short-lasting heat and mechanical hypersensitivity to a similar extent in both WT and DKO mice
same,"Swelling of the hindpaw, DKO versus WT",[2],provoked swelling of the hindpaw of DKO mice to a similar extent as WT mice
same,"Heat hypersensitivity, Hargreaves",[7],short-lasting heat and mechanical hypersensitivity to a similar extent in both WT and DKO mice
CC(=O)O [acetic acid],Writhing behavior,[8],comparable writhing behavior in both WT and DKO mice
COc1cc(CNC(=O)CCCC/C=C/C(C)C)ccc1O [capsaicin],Capsaicin-evoked dorsal horn Fos expression,[9],No differences in dorsal horn Fos expression were observed
same,CGRP-sniffer activity evoked by DKO neurons,"[4]; capsaicin application, DKO DRG neurons",markedly reduced activity
same,CGRP-sniffer calcium response evoked by capsaicin,"[4]; capsaicin application, WT DRG neurons",strong increases in calcium
same,CGRP-sniffer GCaMP6s fluorescence,"[4]; capsaicin, WT versus DKO DRG co-culture, n=18 wells from 3 mice per genotype","increase in CGRP-sniffer GCaMP6s fluorescence when cultured with DRGs from WT, but not DKO, mice"
same,"Paw swelling by volume, WT versus DKO","[2]; capsaicin injection, 30 min, normalized to uninjected paw, WT n=9, DKO n=7",no appreciable differences in capsaicin-induced swelling between WT and DKO mice
same,"Swelling of the hindpaw, DKO versus WT",[2],provoked swelling of the hindpaw of DKO mice to a similar extent as WT mice
same,Licking responses after capsaicin,"[10]; WT n=9, DKO n=8",evoked coping-like licking responses in both genotypes
same,"Licking, difference WT versus DKO after capsaicin",[10]; unpaired t-test,differences did not reach statistical significance
same,Substance P-sniffer GCaMP response evoked by capsaicin,[11]; DKO DRG neurons,no Substance P-sniffer cell responses
same,Substance P-sniffer GCaMP6s fluorescence,"[11]; WT versus DKO DRG co-culture, n=12 wells from 2 mice per genotype","increase in Substance P-sniffer GCaMP6s fluorescence when cultured with DRGs from WT, but not DKO, mice"
same,Substance P-sniffer GCaMP response evoked by capsaicin,[11]; control (WT) DRG neurons,robust GCaMP responses
same,Plasma extravasation,"[3]; capsaicin injection, Evans blue optical density normalized to uninjected paw, WT n=9, DKO n=7",plasma extravasation was intact in DKO mice
same,Paw swelling and plasma extravasation (images),[3],both WT and DKO mice show paw swelling and plasma extravasation
"CCN(CC)CCCC(C)Nc1ccnc2cc(Cl)ccc12 (centres unmarked) [chloroquine, Chloroquine diphosphate salt]",Scratching,[12],DKO mice scratched robustly
